# In PMC6017736, “Indole-3-Carbonitriles as DYRK1A Inhibitors by Fragment-Based Drug Design” (Molecules : A Journal of Synthetic Chemistry and Natural …, 2018):
# Tests used:
# DYRK1A [1] = molecular target: T1, DYRK1A (Homo sapiens, UniProt Q13627); assay: Protein kinase assay ([γ-33P]-ATP, RS peptide substrate), DYRK1A; assay type: biochemical; settings: for IC50: 15 µM ATP, read-out: IC50 DYRK 1A
# DYRK1B [2] = molecular target: DYRK1B (Homo sapiens, UniProt Q9Y463); assay: Protein kinase assay ([γ-33P]-ATP, RS peptide substrate), DYRK1B; assay type: biochemical; settings: 15 µM ATP; read-out: IC50 DYRK 1B
# Experimental: (§1) DYRK1A, 1B, 2, 3 (human, recombinant, expressed in E. coli as GST fusion proteins) and CLK1, 2, 3, and 4 (mouse, recombinant, expressed in E. coli as GST fusion proteins) were assayed as described for GSK-3 in Buffer A (supplemented extemporaneously with 0.15 mg BSA/mL + 1 mM DTT) with 1 µg of RS peptide ([…]) as a substrate.
# DYRK2 = molecular target: T2, DYRK2 (Homo sapiens, UniProt Q92630); assay: Protein kinase assay ([γ-33P]-ATP, RS peptide substrate), DYRK2; assay type: biochemical; settings: 10 µM compound; read-out: Inhibition at 10 µM DYRK2 (class symbol)
# T2 sequence (Q92630 1-601): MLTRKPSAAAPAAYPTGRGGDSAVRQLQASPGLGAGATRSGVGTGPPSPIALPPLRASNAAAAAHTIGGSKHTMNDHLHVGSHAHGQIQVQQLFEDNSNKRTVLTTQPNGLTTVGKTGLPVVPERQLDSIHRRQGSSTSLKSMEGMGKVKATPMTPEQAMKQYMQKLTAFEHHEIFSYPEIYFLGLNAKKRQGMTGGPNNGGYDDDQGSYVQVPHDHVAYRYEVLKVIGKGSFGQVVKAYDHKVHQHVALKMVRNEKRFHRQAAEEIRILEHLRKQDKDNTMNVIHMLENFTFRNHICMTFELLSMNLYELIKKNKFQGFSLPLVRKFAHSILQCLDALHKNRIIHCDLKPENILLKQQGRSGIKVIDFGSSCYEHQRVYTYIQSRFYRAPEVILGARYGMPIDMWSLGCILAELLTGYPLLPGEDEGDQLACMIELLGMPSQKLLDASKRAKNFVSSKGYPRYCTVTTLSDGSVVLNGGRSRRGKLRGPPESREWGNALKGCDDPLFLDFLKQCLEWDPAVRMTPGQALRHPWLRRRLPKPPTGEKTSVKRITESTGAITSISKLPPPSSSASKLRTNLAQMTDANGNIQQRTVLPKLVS
# Experimental: as §1
# DYRK3 = molecular target: T3, DYRK3 (Homo sapiens, UniProt O43781); assay: Protein kinase assay ([γ-33P]-ATP, RS peptide substrate), DYRK3; assay type: biochemical; settings: 10 µM compound; read-out: Inhibition at 10 µM DYRK3 (class symbol)
# T3 sequence (O43781 1-588): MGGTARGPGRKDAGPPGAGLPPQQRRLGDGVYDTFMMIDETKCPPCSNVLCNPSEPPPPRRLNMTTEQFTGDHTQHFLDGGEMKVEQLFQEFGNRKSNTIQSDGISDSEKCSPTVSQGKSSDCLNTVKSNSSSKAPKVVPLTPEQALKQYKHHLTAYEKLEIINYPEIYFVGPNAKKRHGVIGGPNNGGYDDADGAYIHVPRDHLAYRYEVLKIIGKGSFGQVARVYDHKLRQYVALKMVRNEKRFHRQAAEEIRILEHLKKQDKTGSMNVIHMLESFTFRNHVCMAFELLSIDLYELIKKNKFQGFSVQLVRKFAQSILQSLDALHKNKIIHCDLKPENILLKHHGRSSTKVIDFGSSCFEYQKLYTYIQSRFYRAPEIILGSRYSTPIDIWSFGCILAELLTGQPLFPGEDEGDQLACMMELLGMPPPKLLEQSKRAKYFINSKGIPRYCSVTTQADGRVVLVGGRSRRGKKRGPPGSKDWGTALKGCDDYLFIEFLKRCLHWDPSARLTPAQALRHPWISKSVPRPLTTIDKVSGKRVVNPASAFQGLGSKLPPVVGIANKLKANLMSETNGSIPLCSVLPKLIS
# Experimental: as §1
# CLK1 = CLK1 (Mus musculus, UniProt P22518); assay: Protein kinase assay ([γ-33P]-ATP, RS peptide substrate), CLK1; assay type: biochemical; settings: for IC50: 15 µM ATP
# Experimental: as §1
# CLK2 = CLK2 (Mus musculus, UniProt O35491); assay: Protein kinase assay ([γ-33P]-ATP, RS peptide substrate), CLK2; assay type: biochemical; settings: 15 µM ATP
# Experimental: as §1
# CLK3 = CLK3 (Mus musculus, UniProt O35492); assay: Protein kinase assay ([γ-33P]-ATP, RS peptide substrate), CLK3; assay type: biochemical; settings: 10 µM compound; read-out: Inhibition at 10 µM CLK3 (class symbol)
# Experimental: as §1
# CLK4 = CLK4 (Mus musculus, UniProt O35493); assay: Protein kinase assay ([γ-33P]-ATP, RS peptide substrate), CLK4; assay type: biochemical; settings: 15 µM ATP
# Experimental: as §1
# [3] = Cytotoxicity, cell viability by tetrazolium dye assay (XTT assay); assay type: cell-based; settings: human, HeLa cells, read-out: Viability of treated HeLa cells relative to control cells
# Experimental: To evaluate the applicability of the 2-substituted indole-3-carbonitrile compounds in cell culture experiments, we assessed toxicity of 6f, 6h, 6s and 13b on HeLa cells by viability assays (Table 4).
# The inhibitors were added to the cultured cells from stock solutions in DMSO to the desired final concentration. For cytotoxicity assays, HeLa cells were grown in 96-well plates (20,000–30,000 cells per well) and incubated with the test compounds for 3 days before cell viability was evaluated with the help of a tetrazolium dye assay (XTT assay, AppliChem GmbH, Darmstadt, Germany).
# [4] = test system: DYRK1A (phosphorylation of T434 in SF3B1) in HeLa cells; assay: Inhibition of endogenous DYRK1A activity in HeLa cells (phosphorylation of T434 in GFP-SF3B1-NT, Western blot); assay type: cell-based
# DYRK1A [5] = molecular target: T1, DYRK1A; assay: Ligand-lipophilicity efficiency (pIC50 minus calculated logP)
# Experimental: All new compounds were evaluated based on their physicochemical properties regarding Lipinski’s rule of five and the ligand-lipophilicity efficiency (LLE). Both concepts are used to assess the druglikeness of drug development candidates. […] LLE is calculated from pIC50 minus calculated logP [46].
# [6] = Thermodynamic solubility, shake-flask method with HPLC quantification; assay type: physicochemical; settings: phosphate buffer pH 7.4, 25 °C
# Experimental: For solubility assays an aqueous phosphate buffer pH 7.4 was used. The buffer was prepared by dissolving Na2HPO4 × 2 H2O (298 mg), KH2PO4 (19 mg) and NaCl (800 mg) in water (100 mL). The pH was adjusted to 7.4 by addition of hydrochloric acid. The thermodynamic solubility was determined using a shake-flask method with quantification by a HPLC method. The test compounds (500 µg) were incubated with aqueous phosphate buffer pH 7.4 (400 µL) in sealed Whatman MiniUniPrep vials (GE Healthcare, Freiburg, Germany). The mixtures were shaken at 25 °C and 400 rpm for 24–96 h (IKA KS 3000 ic control, IKA-Werke, Staufen, Germany). After 24 h, 48 h and 72 h, the mixtures were visually inspected for remaining solids and the solids were filtered off. The concentrations in the resulting saturated solutions were quantified by isocratic HPLC using calibration with external standard. If equilibrium was not reached after 72 h, solubility of a further sample was determined after 96 h. For calibration, a stock solution of 10 mM of the test compounds in DMSO was prepared and the stock solution was diluted with ACN to suitable concentrations. The AUC at the wavelength maxima was used for quantification.
# [7] = Kinetic solubility, laser nephelometry; assay type: physicochemical; settings: phosphate buffer pH 7.4, nephelometry
# Experimental: The kinetic solubility was determined using laser nephelometry. A stock solution of the test compounds in DMSO was prepared and further diluted with DMSO to achieve a dilution series of 8–12 solutions with different concentrations. The DMSO solutions (2 µL) were placed in a row on a 96-well plate and diluted with aqueous phosphate buffer pH 7.4 (198 µL). The well plate was scanned by a nephelometer (Nephelostar Plus, BMG Labtech, Ortenberg, Germany). Unsolved particles scatter the laser light which is detected by the nephelometer. The intensity of the scattered light is proportional to the particle concentration in the suspension. The intensity of the scattered light was plotted versus the concentration to obtain a kick off curve. The concentration at which the compounds began to precipitate was directly read out from the kick off curve.
# GSK-3 = assay: Protein kinase assay ([γ-33P]-ATP, GS-1 substrate), GSK-3
# DYRK1B [8] = test system: DYRK1B; set-up: method as in PMID 27766861, PMID 25268714, PMID 25264830; settings: cited from earlier work
# [9] = test system: DYRK1A-mediated tau phosphorylation and Aβ production; set-up: method as in PMID 25556849; settings: cellular; cited from earlier work
# DYRK1A [10] = settings: read-out: IC50 DYRK1A; cited from earlier work
# [11] = pIC50 (DYRK1A) minus calculated logP
# CLK1, sequence (P22518 whole entry): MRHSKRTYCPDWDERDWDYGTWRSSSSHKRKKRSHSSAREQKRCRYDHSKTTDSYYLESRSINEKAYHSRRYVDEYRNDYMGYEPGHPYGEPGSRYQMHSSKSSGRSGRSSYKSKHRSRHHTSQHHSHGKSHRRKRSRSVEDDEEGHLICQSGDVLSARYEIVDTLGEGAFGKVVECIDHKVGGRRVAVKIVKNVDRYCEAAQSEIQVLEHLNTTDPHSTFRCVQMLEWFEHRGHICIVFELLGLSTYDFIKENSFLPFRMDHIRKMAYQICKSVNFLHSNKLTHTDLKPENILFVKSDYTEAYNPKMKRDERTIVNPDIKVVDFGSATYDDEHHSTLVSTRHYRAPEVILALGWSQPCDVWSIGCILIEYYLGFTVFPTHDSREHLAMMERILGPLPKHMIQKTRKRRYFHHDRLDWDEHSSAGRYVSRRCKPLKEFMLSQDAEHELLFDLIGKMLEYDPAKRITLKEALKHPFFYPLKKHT
# DYRK1B, sequence (Q9Y463 whole entry, the tested form may be a part): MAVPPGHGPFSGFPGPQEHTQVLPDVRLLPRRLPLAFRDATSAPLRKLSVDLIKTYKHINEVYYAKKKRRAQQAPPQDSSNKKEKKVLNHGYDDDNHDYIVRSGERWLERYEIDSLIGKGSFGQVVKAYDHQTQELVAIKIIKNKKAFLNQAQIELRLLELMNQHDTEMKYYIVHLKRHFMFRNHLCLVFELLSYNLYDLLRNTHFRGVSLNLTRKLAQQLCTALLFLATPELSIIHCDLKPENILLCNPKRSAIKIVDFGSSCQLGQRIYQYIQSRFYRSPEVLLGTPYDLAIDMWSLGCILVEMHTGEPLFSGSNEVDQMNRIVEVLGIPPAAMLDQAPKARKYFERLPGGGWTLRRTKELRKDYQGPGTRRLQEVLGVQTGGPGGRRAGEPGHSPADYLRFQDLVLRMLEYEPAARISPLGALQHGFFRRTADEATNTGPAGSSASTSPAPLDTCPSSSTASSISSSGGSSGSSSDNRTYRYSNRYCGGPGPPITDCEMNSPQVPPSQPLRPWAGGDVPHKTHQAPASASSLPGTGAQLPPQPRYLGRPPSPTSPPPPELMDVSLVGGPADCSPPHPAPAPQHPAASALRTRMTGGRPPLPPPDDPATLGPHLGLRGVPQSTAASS
# CLK4, sequence (O35493 whole entry): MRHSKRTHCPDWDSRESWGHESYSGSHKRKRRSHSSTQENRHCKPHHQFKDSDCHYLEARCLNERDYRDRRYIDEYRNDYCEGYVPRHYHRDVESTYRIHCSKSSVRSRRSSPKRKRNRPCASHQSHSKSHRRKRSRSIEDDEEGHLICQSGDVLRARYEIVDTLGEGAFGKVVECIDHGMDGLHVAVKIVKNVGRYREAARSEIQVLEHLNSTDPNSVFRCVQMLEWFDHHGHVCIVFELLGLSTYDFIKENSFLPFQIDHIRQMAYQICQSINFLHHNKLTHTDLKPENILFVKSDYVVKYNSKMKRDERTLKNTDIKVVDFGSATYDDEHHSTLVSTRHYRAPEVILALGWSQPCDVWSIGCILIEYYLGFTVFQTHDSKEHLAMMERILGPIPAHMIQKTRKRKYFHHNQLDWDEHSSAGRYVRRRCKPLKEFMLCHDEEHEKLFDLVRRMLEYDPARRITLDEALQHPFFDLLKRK
# CLK2, sequence (O35491 whole entry): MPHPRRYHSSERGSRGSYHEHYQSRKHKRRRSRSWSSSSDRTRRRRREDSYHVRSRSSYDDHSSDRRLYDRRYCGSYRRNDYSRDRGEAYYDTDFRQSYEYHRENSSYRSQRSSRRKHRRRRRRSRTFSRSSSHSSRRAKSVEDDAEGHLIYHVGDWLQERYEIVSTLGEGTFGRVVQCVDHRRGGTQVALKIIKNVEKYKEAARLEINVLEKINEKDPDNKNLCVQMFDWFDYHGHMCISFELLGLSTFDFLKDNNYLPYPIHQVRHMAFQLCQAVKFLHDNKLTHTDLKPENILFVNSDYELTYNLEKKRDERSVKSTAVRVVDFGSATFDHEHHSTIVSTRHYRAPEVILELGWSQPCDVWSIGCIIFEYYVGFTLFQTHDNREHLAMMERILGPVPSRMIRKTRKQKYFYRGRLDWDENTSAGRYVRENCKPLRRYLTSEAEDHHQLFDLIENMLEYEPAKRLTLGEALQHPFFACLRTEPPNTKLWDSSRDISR
# CLK3, sequence (O35492 whole entry): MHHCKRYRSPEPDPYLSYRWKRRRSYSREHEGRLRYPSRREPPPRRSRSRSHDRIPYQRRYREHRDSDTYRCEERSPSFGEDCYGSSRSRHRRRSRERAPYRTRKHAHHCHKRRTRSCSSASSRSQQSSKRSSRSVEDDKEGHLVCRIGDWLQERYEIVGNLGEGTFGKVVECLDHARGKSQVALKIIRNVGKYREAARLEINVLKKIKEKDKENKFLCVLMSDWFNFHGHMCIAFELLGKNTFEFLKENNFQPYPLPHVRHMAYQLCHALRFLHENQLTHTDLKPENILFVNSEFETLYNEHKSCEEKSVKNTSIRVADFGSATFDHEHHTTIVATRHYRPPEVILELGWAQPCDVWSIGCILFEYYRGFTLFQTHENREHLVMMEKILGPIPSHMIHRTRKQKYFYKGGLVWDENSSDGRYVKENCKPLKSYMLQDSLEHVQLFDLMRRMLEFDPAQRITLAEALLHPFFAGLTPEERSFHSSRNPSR
SMILES,IC50 (DYRK1A [1]) [nM],IC50 (DYRK1B [2]) [nM],inhibition at 10 µM (DYRK2) [%],inhibition at 10 µM (DYRK3) [%],IC50 (CLK1) [nM],IC50 (CLK2) [nM],inhibition at 10 µM (CLK3) [%],IC50 (CLK4) [nM],"viability at 3 days, 1 µM [3] [%]","viability at 3 days, 3 µM [3] [%]","viability at 3 days, 10 µM [3] [%]",LLE (DYRK1A [5]; Table S2),LLE (DYRK1A [5]; [11]),"Sexp., therm., pH 7.4 [6] [µM]","Sexp., kin., pH 7.4 [7]",further results
"N#Cc1c(C2CCCC2)[nH]c2c(I)cccc12 [Compound 6s, 2-Cyclopentyl-7-iodo-1H-indole-3-carbonitrile]",70,600,< 20,< 20,120,1000,< 20,100,99,100,82,2.78,2.78,<0.5,16.2 (15.2–17.3) µM,"IC50 ([4]; Homo sapiens, HeLa cells expressing GFP-SF3B1-NT, 18 h, read-out: IC50 inhibition of endogenous DYRK1A activity in HeLa cells (pT434 SF3B1)): 520 nM; IC50 (GSK-3; read-out: IC50 GSK3, 15 µM ATP): > 10000 nM"
"N#Cc1cn(Cc2ccccc2)c2c(Br)cccc12 [Compound 13b, 1-Benzyl-7-bromo-1H-indole-3-carbonitrile]",–,–,–,–,–,–,–,–,94,94,66,–,–,–,–,"remaining activity at 10 µM (DYRK1A [1]; 10 µM compound, compared to controls, read-out: Residual Activity at 10 µM DYRK 1A): 81%; remaining activity at 10 µM (CLK1; 10 µM compound, compared to controls, read-out: Residual Activity at 10 µM CLK1): 53%; Effect on the phosphorylation of SF3B1 on T434 ([4]; HeLa cells, negative control): did not affect; Residual Activity at 10 µM GSK3 (GSK-3; 10 µM compound, compared to controls): 114%"
"Cn1c(-c2ccccc2)c(C#N)c2cccc(I)c21 [Compound 13f, 7-Iodo-1-methyl-2-phenyl-1H-indole-3-carbonitrile]",650,2100,< 20,< 20,600,> 10000,< 20,1000,–,–,–,1.54,1.54,<0.5,37.5 (36.6–38.4) µM,"Inhibition at 10 µM GSK3 (class symbol) (GSK-3; 10 µM compound): - (-: less than 20% inhibition at 10 µM, IC50 was not determined)"
COC(=N)c1nc2ccc3ncnc(Nc4ccc(OC)cc4F)c3c2s1 [EHT 5372],–,–,–,–,–,–,–,–,–,–,–,–,–,–,–,IC50 (DYRK1B [8]): […]; IC50 [9]: 1060 to 1170 nM; IC50 (DYRK1A [10]): 0.22 nM
